Data: US6589956B2, “Benzenesulphonamide compounds” (Les Laboratoires Servier, priority 2001, dated 2003)
pIC50: −log10 of the molar value.

How the values were obtained:
[1] = tested on: platelets in human platelet-rich plasma (5-hydroxytryptamine-induced aggregation); assay: Platelet aggregation in man induced by 5-hydroxytryptamine; type: cell-based; conditions: human PRP, 5-hydroxytryptamine 10 μM in the presence of 0.3 μM adenosine diphosphate and 1 μM adrenalin, read-out: IC50, inhibition of platelet aggregation produced by 5-hydroxytryptamine
Experimental: (§1) Venous blood is obtained from human volunteers who have not taken aspirin for at least 14 days prior to the experiment. The blood is removed over sodium citrate (0.109 M) (1 vol. of citrate over 9 vol. of blood). Platelet-rich plasma (PRP) is obtained by centrifugation (20° C.) at 200 g for 10 minutes. The number of platelets is on average. 250000 PL/mm^3. The PRP is stored at room temperature until the test and is used within 2 hours of having been taken. The TXA2 agonist U46619 is used at a concentration of 1 μM and 5-hydroxytryptamine is used at a concentration of 10 μM, the latter in the presence of 0.3 μM adenosine diphosphate and 1 μM adrenalin.

[2] = tested on: platelets in human platelet-rich plasma (TXA2 agonist U46619-induced aggregation); assay: Platelet aggregation in man induced by the TXA2 agonist U46619; type: cell-based; conditions: human PRP, U46619 1 μM, read-out: IC50, inhibition of platelet aggregation induced by the TXA2 agonist
Experimental: as §1

SMILES: O=C(O)CCn1cc(CCN2CCN(c3nsc4ccccc34)CC2)c2cc(CCNS(=O)(=O)c3ccc(Cl)cc3)ccc21 [Example 6, 3-[3-{2-[4-(1,2-Benzisothiazol-3-yl)-1-piperazinyl]ethyl}-5-(2-{[(4-chlorophenyl)sulphonyl]amino}ethyl)-1H-indol-1-yl]propanoic Acid]
- pIC50 [1]: 5.52
- pIC50 [2]: 5.82
